Source: PubChem BioAssay (NCI)
“And” between values parts separate entries of the source, which are not always exact repeats. Identical values can stand only once.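 Dose response: 5 concentrations. Exposure: 48 h. Format: 96-well plates. Endpoint: linear interpolation; highest concentration if not reached. GI50 is the concentration that inhibits growth by half. Definition used: TGI = concentration required for complete inhibition of growth.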

Key:
Assay in all cases: NCI tumour cell line growth inhibition, 48 h
[1] = system: COLO 205 colon
[2] = system: A549 NSCLC
[3] = system: KM12 colon
[4] = system: SF-539 CNS
[5] = system: UACC-62 melanoma
[6] = system: OVCAR-4 ovarian
[7] = system: SW-620 colon
[8] = system: HCC-2998 colon
[9] = system: SNB-75 CNS
[10] = system: SK-OV-3 ovarian

SMILES | GI50 [1] | TGI [1] | GI50 [2] [nM] | TGI [2] | GI50 [3] | TGI [3] [µM] | GI50 [4] [nM] | TGI [4] | GI50 [5] [nM] | TGI [5] | GI50 [6] [µM] | TGI [6] [µM] | GI50 [7] | TGI [7] | GI50 [8] [nM] | TGI [8] | GI50 [9] [nM] | TGI [9] | GI50 [10] | TGI [10]
COc1ccc(N2C(C)=C(C#N)C34C(=O)N(c5ccccc5)C(=O)C3=C(O)C=CC24O)cc1 (stereo not drawn) | 10800 nM | 23.2 µM | 26300 | > 100 µM | 10000 nM | 26.6 | 6820 | 25.3 µM | 5060 | 18.7 µM | 24.4 | 94.5 | 10300 nM | 24.6 µM | 9880 | 23.6 µM | 14800 | 44.5 µM | 36.2 µM | > 100 µM
CCCCCCCCCc1cc(=O)c2ccc(OCc3ccccc3)cc2o1 | – | > 100 µM | – | > 100 µM | – | > 100 | – | > 100 µM | – | > 100 µM | – | > 100 | – | > 100 µM | – | > 100 µM | – | 72.3 µM | – | > 100 µM
COc1nc(NC2OCC(OC(C)=O)C(OC(C)=O)C2OC(C)=O)c(N=CC=Nc2c(NC3OCC(OC(C)=O)C(OC(C)=O)C3OC(C)=O)nc(OC)n(C)c2=O)c(=O)n1C (stereo not drawn) | – | > 100 µM | – | > 100 µM | – | > 100 | – | > 100 µM | – | > 100 µM | – | > 100 | – | > 100 µM | – | > 100 µM | – | > 100 µM | – | > 100 µM
COC(=O)CCC(NC(=S)N/N=C(\C)c1nccs1)C(=O)OC (stereo not drawn) | – | 34.1 µM | – | > 100 µM | – | > 100 | – | > 100 µM | – | > 100 µM | – | > 100 | – | > 100 µM | – | > 100 µM | – | > 100 µM | – | > 100 µM
CN(CCCN)CCCNc1nc2ccccc2c2[nH]c3ccccc3c12 | 178 nM | 0.509 µM | 160 | 2.22 µM | 51.3 nM | 0.314 | 324 | 0.943 µM | 285 | 0.692 µM | 0.201 | 0.614 | 315 nM | 1.64 µM | 113 | 0.271 µM | 272 | 0.943 µM | 2.07 µM | 7.29 µM
COc1cc(C2c3cc4c(cc3[C@@H](Nc3ccc(C#N)cc3)C3COC(=O)[C@H]23)OCO4)cc(OC)c1O (stereo partly drawn) | 1980 nM and 1380 nM | 13 µM and 8.41 µM and 11.5 µM | 107 | 6.1 µM and 2.35 µM and 2.96 µM | 1130 nM and 1610 nM | – | 431 | 11.3 µM and 3.64 µM | 783 | 9.01 µM and 14.1 µM | – | 19.2 | 781 nM and 263 nM | 50 µM and 75 µM and 11.4 µM | 1020 | 5.11 µM and 2.11 µM | 787 | 42.6 µM and 56.3 µM | 3.29 µM and 1.34 µM | 48.8 µM and 11.3 µM and > 100 µM
Nc1c(C(=O)Nc2cccc([N+](=O)[O-])c2)sc2nc3c(cc12)C(O)CCC3 (stereo not drawn) | 3510 nM | > 100 µM | 5820 | > 100 µM | 3500 nM | > 100 | 5060 | > 93.7 µM | 5930 | > 100 µM | > 36.2 | > 100 | 3480 nM | > 100 µM | > 100000 | > 100 µM | 5380 | 30.5 µM | 10.2 µM | > 100 µM
COC(=O)/C=C/C=C(c1ccccc1)c1ccccc1 | 3570 nM | 13.9 µM | 5020 | > 100 µM | 3670 nM | 27.4 | 5170 | 43.3 µM | 5430 | 25.4 µM | 8.59 | > 100 | 3030 nM | > 100 µM | 28800 | > 100 µM | 2720 | 53.1 µM | 5.93 µM | 48.9 µM
CC1CCCCc2nc3c(c(=O)n21)CCCC3 (stereo not drawn) | – | > 100 µM | – | > 100 µM | – | > 100 | – | > 100 µM | – | > 100 µM | – | > 100 | – | > 100 µM | – | > 100 µM | – | > 100 µM | – | > 100 µM
CCCC[C@H](NC(=O)[C@H]1CCCN1C)C(=O)N(C)[C@H](C[C@@H](OC(C)=O)c1nc(C(=O)N[C@@H](Cc2ccccc2)C[C@H](C)C(=O)OCC)cs1)C(C)C | 13.2 nM | 0.0961 µM | 50.1 | > 33.3 µM | 11.4 nM | 18 | 22 | 0.241 µM | 4.89 | > 33.3 µM | 0.357 | > 33.3 | 10.6 nM | > 33.3 µM | 11.3 | 10.9 µM | 15.2 | 8.92 µM | 0.0969 µM | > 33.3 µM
O=C(c1ccc(F)cc1)c1cccc(C(=O)c2ccc(F)cc2)n1 | – | > 100 µM | – | > 100 µM | – | > 100 | – | 56.3 µM | – | > 100 µM | – | > 100 | – | > 100 µM | – | > 100 µM | – | 22.7 µM | – | 52.5 µM
